The source of these data is patent publication US9511058B2, “Methods for using carboxamide, sulfonamide and amine compounds” (Rigel Pharmaceuticals, Inc., priority 2010, dated 2016).

The first experiment addresses AMPK. The experiment can be described thus: AMPK activation, enzyme-linked immunosorbent assay. Type of experiment: biochemical. Conditions: compounds of Table 2 (Table 7).
Regarding `O=C(NC1CCN(C(=O)c2ccc(F)cc2)CC1)c1ccc2[nH]c3c(c2c1)CN(c1ccc(F)cc1)CC3` [2-39, N-(1-(4-fluorobenzoyl)piperidin-4-yl)-2-(4-fluorophenyl)-2,3,4,5-tetrahydro-1H-pyrido[4,3-b]indole-8-carboxamide], the EC50 (usually the concentration at which the effect is half-maximal) is 10000 to 50000 nM.

Compound `O=C(NC1CCN(C(=O)c2cccnc2)CC1)c1ccc2[nH]c3c(c2c1)CN(c1ccc(F)cc1)CC3` [2-40, 2-(4-fluorophenyl)-N-(1-nicotinoylpiperidin-4-yl)-2,3,4,5-tetrahydro-1H-pyrido [4,3-b]indole-8-carboxamide] returned a concentration giving a half-maximal response (EC50) of over 100000 nM.

On to `O=C(NC1CCN(C(=O)c2ccc(C(F)(F)F)cc2)CC1)c1ccc2[nH]c3c(c2c1)CN(c1ccc(F)cc1)CC3` [2-41, 2-(4-fluorophenyl)-N-(1-(4-(trifluoromethyl)benzoyl)piperidin-4-yl)-2,3,4,5-tetrahydro-1H-pyrido[4,3-b]indole-8-carboxamide], for which the EC50 is 10000 to 50000 nM.

With `CC(C)(C)OC(=O)N1CCC(NC(=O)c2ccc3[nH]c4c(c3c2)CN(Cc2ccc(C(N)=O)cc2)CC4)CC1` [2-43, tert-butyl 4-(2-(4-carbamoylbenzyl)-2,3,4,5-tetrahydro-1H-pyrido[4,3-b]indole-8-carboxamido) piperidine-1-carboxylate], the EC50 is over 100000 nM.

On to `N#Cc1ccc(CN2CCC(NC(=O)c3ccc4[nH]c5c(c4c3)CN(Cc3ccc(C(N)=O)cc3)CC5)CC2)cc1` [2-44, 2-(4-carbamoylbenzyl)-N-(1-(4-cyanobenzyl)piperidin-4-yl)-2,3,4,5-tetrahydro-1H-pyrido [4,3-b]indole-8-carboxamide], for which the EC50 fell in the range of 10000 to 50000 nM.

`NC(=O)c1ccc(CN2CCc3[nH]c4ccc(C(=O)NC5CCN(Cc6ccncc6)CC5)cc4c3C2)cc1` [2-45, 2-(4-carbamoylbenzyl)-N-(1-(pyridin-4-ylmethyl)piperidin-4-yl)-2,3,4,5-tetrahydro-1H-pyrido [4,3-b]indole-8-carboxamide] returned an EC50 of over 100000 nM.

`NC(=O)c1ccc(CN2CCc3[nH]c4ccc(C(=O)NC5CCN(C(=O)c6ccncc6)CC5)cc4c3C2)cc1` [2-46, 2-(4-carbamoylbenzyl)-N-(1-isonicotinoylpiperidin-4-yl)-2,3,4,5-tetrahydro-1H-pyrido [4,3-b]indole-8-carboxamide] gave an EC50 of over 100000 nM.

Turning to `NC(=O)c1ccc(CN2CCc3[nH]c4ccc(C(=O)NC5CCN(Cc6ccc(C(F)(F)F)cc6)CC5)cc4c3C2)cc1` [2-47, 2-(4-carbamoylbenzyl)-N-(1-(4-(trifluoromethyl)benzyl)piperidin-4-yl)-2,3,4,5-tetrahydro-1H-pyrido[4,3-b]indole-8-carboxamide], the EC50 was in the range of 10000 to 50000 nM.

The compound `NC(=O)c1ccc(CN2CCc3[nH]c4ccc(C(=O)NC5CCN(Cc6ccc(F)cc6)CC5)cc4c3C2)cc1` [2-48, 2-(4-carbamoylbenzyl)-N-(1-(4-fluorobenzyl)piperidin-4-yl)-2,3,4,5-tetrahydro-1H-pyrido [4,3-b]indole-8-carboxamide] had a half-maximal effective concentration (EC50) of over 100000 nM.

For the compound `NC(=O)c1ccc(CN2CCC(NC(=O)c3ccc4[nH]c5c(c4c3)CN(Cc3ccc(C(N)=O)cc3)CC5)CC2)cc1` [2-49, 2-(4-carbamoylbenzyl)-N-(1-(4-carbamoylbenzyl)piperidin-4-yl)-2,3,4,5-tetrahydro-1H-pyrido [4,3-b]indole-8-carboxamide], the EC50 was over 100000 nM.

Turning to `O=C(NC1CCN(Cc2ccncc2)CC1)c1ccc2[nH]c3c(c2c1)CN(Cc1ccc(C(F)(F)F)cc1)CC3` [2-50, N-(1-(pyridin-4-ylmethyl)piperidin-4-yl)-2-(4-(trifluoromethyl)benzyl)-2,3,4,5-tetrahydro-1H-pyrido[4,3-b]indole-8-carboxamide], the EC50 is under 500 nM.

In the case of `O=C(NC1CCN(C(=O)c2ccncc2)CC1)c1ccc2[nH]c3c(c2c1)CN(Cc1ccc(C(F)(F)F)cc1)CC3` [2-51, N-(1-isonicotinoyl-piperidin-4-yl)-2-(4-(trifluoromethyl)benzyl)-2,3,4,5-tetrahydro-1H-pyrido [4,3-b]indole-8-carboxamide], the EC50 fell in the range of 500 to 1000 nM.

Take `NC(=O)c1ccc(CN2CCC(NC(=O)c3ccc4[nH]c5c(c4c3)CN(Cc3ccc(C(F)(F)F)cc3)CC5)CC2)cc1` [2-52, N-(1-(4-carbamoyl-benzyl)piperidin-4-yl)-2-(4-(trifluoromethyl)benzyl)-2,3,4,5-tetrahydro-1H-pyrido [4,3-b]indole-8-carboxamide]: the EC50 lay in the range of 1000 to 5000 nM.

For `Cn1cnc(CN2CCC(NC(=O)c3ccc4[nH]c5c(c4c3)CN(Cc3ccc(C(F)(F)F)cc3)CC5)CC2)c1` [2-53, N-(1-((1-methyl-1H-imidazol-4-yl)methyl)piperidin-4-yl)-2-(4-(trifluoromethyl)benzyl)-2,3,4,5-tetrahydro-1H-pyrido [4,3-b]indole-8-carboxamide], the EC50 was in the range of 10000 to 50000 nM.

`O=C(NC1CCN(Cc2cocn2)CC1)c1ccc2[nH]c3c(c2c1)CN(Cc1ccc(C(F)(F)F)cc1)CC3` [2-54, N-(1-(oxazol-4-ylmethyl)piperidin-4-yl)-2-(4-(trifluoromethyl)benzyl)-2,3,4,5-tetrahydro-1H-pyrido [4,3-b]indole-8-carboxamide] came in with an EC50 of under 500 nM.

Still in this experiment, the particulars now being: compounds of Table 3 (Table 8).
Turning to `CC(C)(C)OC(=O)N1CCC(NC(=O)c2nc3ccc(OC4CCN(c5ccc(C(F)(F)F)cc5)CC4)cc3o2)CC1` [3-1, tert-butyl 4-(6-(1-(4-(trifluoromethyl)phenyl)piperidin-4-yloxy)benzo[d]oxazole-2-carboxamido)piperidine-1-carboxylate], the EC50 is under 100 nM.

`N#Cc1ccc(CN2CCC(NC(=O)c3nc4ccc(OC5CCN(c6ccc(C(F)(F)F)cc6)CC5)cc4o3)CC2)cc1` [3-2, N-(1-(4-cyanobenzyl)piperidin-4-yl)-6-(1-(4-(trifluoromethyl)phenyl)piperidin-4-yloxy)benzo[d]oxazole-2-carboxamide] displayed a concentration giving a half-maximal response (EC50) of under 100 nM.

Compound `O=C(NC1CCN(Cc2ccncc2)CC1)c1nc2ccc(OC3CCN(c4ccc(C(F)(F)F)cc4)CC3)cc2o1` [3-3, N-(1-(pyridin-4-ylmethyl)piperidin-4-yl)-6-(1-(4-(trifluoromethyl)phenyl)piperidin-4-yloxy)benzo[d]oxazole-2-carboxamide] had an EC50 of under 100 nM.

With `O=C(NC1CCN(C(=O)c2ccc(F)cc2)CC1)c1nc2ccc(OC3CCN(c4ccc(C(F)(F)F)cc4)CC3)cc2o1` [3-4, N-(1-(4-fluorobenzoyl)piperidin-4-yl)-6-(1-(4-(trifluoromethyl)phenyl)piperidin-4-yloxy)benzo[d]oxazole-2-carboxamide], the concentration for a half-maximal effect (EC50) was under 100 nM.

`O=C(NC1CCNCC1)c1nc2ccc(OC3CCN(c4ccc(C(F)(F)F)cc4)CC3)cc2o1` [3-5, N-(piperidin-4-yl)-6-(1-(4-(trifluoromethyl)phenyl)piperidin-4-yloxy)benzo[d]oxazole-2-carboxamide] returned an EC50 of 10000 to 100000 nM.

As to `N#Cc1ccc(C(=O)N2CCC(NC(=O)c3nc4ccc(OC5CCN(c6ccc(C(F)(F)F)cc6)CC5)cc4o3)CC2)cc1` [3-6, N-(1-(4-cyanobenzoyl)piperidin-4-yl)-6-(1-(4-(trifluoromethyl)phenyl)piperidin-4-yloxy)benzo[d]oxazole-2-carboxamide], the EC50 was under 100 nM.

On to `O=C(c1nc2ccc(OC3CCN(c4ccc(C(F)(F)F)cc4)CC3)cc2o1)N1CC2CC1CN2Cc1ccncc1` (stereo not drawn) [3-8, (5-(pyridin-4-ylmethyl)-2,5-diazabicyclo[2.2.1]heptan-2-yl)(6-(1-(4-(trifluoromethyl)phenyl)piperidin-4-yloxy)benzo[d]oxazol-2-yl)methanone], for which the EC50 lay within 100 to 1000 nM.

`NC(=O)c1ccc(CN2CC3CC2CN3C(=O)c2nc3ccc(OC4CCN(c5ccc(C(F)(F)F)cc5)CC4)cc3o2)cc1` (stereo not drawn) [3-9, 4-((5-(6-(1-(4-(trifluoromethyl)phenyl)piperidin-4-yloxy)benzo[d]oxazole-2-carbonyl)-2,5-diazabicyclo[2.2.1]heptan-2-yl)methyl)benzamide] came in with a 50% effective concentration (EC50) of 100 to 1000 nM.

In turn, `N#Cc1ccc(CN2CC3CC2CN3C(=O)c2nc3ccc(OC4CCN(c5ccc(C(F)(F)F)cc5)CC4)cc3o2)cc1` (stereo not drawn) [3-10, 4-((5-(6-(1-(4-(trifluoromethyl)phenyl)piperidin-4-yloxy)benzo[d]oxazole-2-carbonyl)-2,5-diazabicyclo[2.2.1]heptan-2-yl)methyl)benzonitrile] came in with a concentration giving a half-maximal response (EC50) of 100 to 1000 nM.

Compound `O=C(c1ccncc1)N1CC2CC1CN2C(=O)c1nc2ccc(OC3CCN(c4ccc(C(F)(F)F)cc4)CC3)cc2o1` (stereo not drawn) [3-11, (5-isonicotinoyl-2,5-diazabicyclo[2.2.1]heptan-2-yl)(6-(1-(4-(trifluoromethyl)phenyl)piperidin-4-yloxy)benzo[d]oxazol-2-yl)methanone] displayed a 50% effective concentration (EC50) of 100 to 1000 nM.

In turn, `N#Cc1ccc(C(=O)N2CC3CC2CN3C(=O)c2nc3ccc(OC4CCN(c5ccc(C(F)(F)F)cc5)CC4)cc3o2)cc1` (stereo not drawn) [3-12, 4-(5-(6-(1-(4-(trifluoromethyl)phenyl)piperidin-4-yloxy)benzo[d]oxazole-2-carbonyl)-2,5-diazabicyclo[2.2.1]heptane-2-carbonyl)benzonitrile] returned an EC50 of under 100 nM.

As to `O=C(c1ccc(F)cc1)N1CC2CC1CN2C(=O)c1nc2ccc(OC3CCN(c4ccc(C(F)(F)F)cc4)CC3)cc2o1` (stereo not drawn) [3-13, (5-(4-fluorobenzoyl)-2,5-diazabicyclo[2.2.1]heptan-2-yl)(6-(1-(4-(trifluoromethyl)phenyl)piperidin-4-yloxy)benzo[d]oxazol-2-yl)methanone], the EC50 was under 100 nM.

Compound `O=C(NC1CCN(Cc2ccncc2)CC1)c1cn2ccc(OC3CCN(c4ccc(C(F)(F)F)cc4)CC3)cc2n1` [3-17, N-(1-(pyridin-4-ylmethyl)piperidin-4-yl)-7-(1-(4-(trifluoromethyl)phenyl)piperidin-4-yloxy)imidazo[1,2-a]pyridine-2-carboxamide] returned an EC50 of under 100 nM.

In turn, `N#Cc1ccc(CN2CCC(NC(=O)c3cn4ccc(OC5CCN(c6ccc(C(F)(F)F)cc6)CC5)cc4n3)CC2)cc1` [3-18, N-(1-(4-cyanobenzyl)piperidin-4-yl)-7-(1-(4-(trifluoromethyl)phenyl)piperidin-4-yloxy)imidazo[1,2-a]pyridine-2-carboxamide] registered an EC50 of under 100 nM.

Take `CC(C)(C)OC(=O)N1CCC(NC(=O)c2cnc(OC3CCN(c4ccc(C(F)(F)F)cc4)CC3)cn2)CC1` [3-19, tert-butyl 4-(5-(1-(4-(trifluoromethyl)phenyl)piperidin-4-yloxy)pyrazine-2-carboxamido)piperidine-1-carboxylate]: the EC50 fell in the range of 1000 to 10000 nM.
